Where “and” joins values, the source holds several entries; their conditions need not be identical. Equal entries are not always repeated.
Experiments:
Salmonella typhimurium = assay: Antibacterial activity against Salmonella typhimurium ATCC 19430 incubated for 18 hrs by agar dilution assay; assay type: functional, Salmonella enterica subsp. enterica serovar Typhimurium; details: Salmonella enterica
Rattus norvegicus [1] = assay: Antiinflammatory activity in Wistar rat model of carrageenan-induced paw edema assessed as reduction in thickness of paw edema at 10 mg/kg, ip pretreated for 1 hr followed by carrageenan challenge and measured after 2 hrs (reference value: 2.06 +/-0.09 mm); assay type: functional; details: time 3 hrs
Rattus norvegicus [2] = assay: Antiinflammatory activity in Wistar rat model of carrageenan-induced paw edema assessed as reduction in thickness of paw edema at 10 mg/kg, ip pretreated for 1 hr followed by carrageenan challenge and measured after 1 hr (reference value: 2.41 +/-0.05 mm); assay type: functional; details: time 1 hr after carrageenan
Pseudomonas aeruginosa = assay: Antibacterial activity against Pseudomonas aeruginosa ATCC 27853 incubated for 18 hrs by agar dilution assay; assay type: functional
Peritoneal macrophage [3] = assay: Antiinflammatory activity in […] mouse Peritoneal macrophages assessed as inhibition of LPS-induced NO production at 10 uM preincubated for 1 hr followed by LPS stimulation measured after 24 hrs by Griess method relative to control (reference value: 0.0 %); assay type: functional; set-up: scale not given: the % may be the effect or the level left; details: time 25 hrs
Mus musculus [4] = assay: Analgesic activity in albino mouse assessed as protection at 10 mg/kg, ip measured after 60 mins by hot plate test (reference value: 0 %); assay type: functional; details: 1 h
Mus musculus [5] = assay: Analgesic activity in albino mouse assessed protection against acetic acid-induced abdominal writhing at 10 mg/kg, ip pretreated for 1 hr followed by acetic acid challenge and measured starting 5 mins post acetic acid challenge for 10 mins relative to control (reference value: 0 %); assay type: functional; details: time 75 min, 1.25 h
[6] = Ulcerogenic activity in fasted albino mouse assessed as average number of ulcers in gastric mucosa at 10 mg/kg, po for 3 days (reference value: 0); assay type: toxicity, organism-based; details: in vivo, 72 h, time 3 day
Splenocyte [7] = assay: Immunomodulatory activity in Swiss albino mouse splenocytes assessed as cell viability at 10 uM by measuring stimulation index incubated for 72 hrs in presence of mitogenic stimulus phytohaemagglutinin by MTT assay (reference value: 1.00 +/- 0.24); assay type: functional
[8] = Ulcerogenic activity in fasted albino mouse assessed as ulcer index in gastric mucosa at 10 mg/kg, po for 3 days (reference value: 0); assay type: toxicity, organism-based; details: in vivo, 72 h, time 3 day
Rattus norvegicus [9] = assay: Antiinflammatory activity in Wistar rat model of carrageenan-induced paw edema assessed as reduction in thickness of paw edema at 10 mg/kg, ip pretreated for 1 hr followed by carrageenan challenge and measured after 3 hrs (reference value: 1.79 +/-0.07 mm); assay type: functional; details: time 4 hrs
Peritoneal macrophage [10] = assay: Antiinflammatory activity in […] mouse Peritoneal macrophages assessed as reduction in LPS-induced NO production by measuring reduction in stimulation index at 10 uM preincubated for 1 hr followed by LPS stimulation measured after 24 hrs by Griess method (reference value: 27.31 +/- 2.56 uM); assay type: functional; details: time 25 hrs
[11] = Ulcerogenic activity in fasted albino mouse assessed as incidence of gastric ulceration at 10 mg/kg, po for 3 days (reference value: 0 %); assay type: toxicity, organism-based; details: in vivo, 72 h, time 3 day
Mus musculus [12] = assay: Analgesic activity in albino mouse assessed as forepaw licking/jumping latency time at 10 mg/kg, ip measured after 120 mins by hot plate test (reference value: 2.62 +/- 0.06 sec); assay type: functional; details: 2 h
Rattus norvegicus [13] = assay: Antiinflammatory activity in Wistar rat model of carrageenan-induced paw edema assessed as reduction in thickness of paw edema at 10 mg/kg, ip pretreated for 1 hr followed by carrageenan challenge and measured after 4 hrs (reference value: 1.40 +/-0.10 mm); assay type: functional; details: time 5 hrs
Rattus norvegicus [14] = assay: Anti-inflammatory activity in Wistar rat assessed as inhibition of carrageenan-induced paw edema at 10 mg/kg, ip pretreated for 1 hr followed by carrageenan challenge and measured after 1 hr relative to control (reference value: 0.00 +/-0.02 %); assay type: functional; details: time 2 hrs
Mus musculus [15] = assay: Analgesic activity in albino mouse assessed protection against acetic acid-induced abdominal writhing at 10 mg/kg, ip pretreated for 1 hr followed by acetic acid challenge and measured starting 5 mins post acetic acid challenge for 10 mins relative to indomethacin; assay type: functional; details: time 75 min, 1.25 h
Rattus norvegicus [16] = assay: Anti-inflammatory activity in Wistar rat assessed as inhibition of carrageenan-induced paw edema at 10 mg/kg, ip pretreated for 1 hr followed by carrageenan challenge and measured after 4 hr relative to indomethacin; assay type: functional; details: time 5 hrs
Mus musculus [17] = assay: Analgesic activity in albino mouse assessed as protection at 10 mg/kg, ip measured after 120 mins by hot plate test (reference value: 0 %); assay type: functional; details: 2 h
Candida albicans = assay: Antifungal activity against Candida albicans incubated for 18 to 24 hrs by CLSI method; assay type: functional; details: time 18-24 hrs
Streptococcus pyogenes = assay: Antibacterial activity against Streptococcus pyogenes ATCC 19615 incubated for 18 hrs by agar dilution method; assay type: functional
Rattus norvegicus [18] = assay: Anti-inflammatory activity in Wistar rat assessed as inhibition of carrageenan-induced paw edema at 10 mg/kg, ip pretreated for 1 hr followed by carrageenan challenge and measured after 4 hr relative to control (reference value: 0.00 +/-0.4 %); assay type: functional; details: time 5 hrs
Splenocyte [19] = assay: Immunomodulatory activity in Swiss albino mouse splenocytes assessed as cell viability at 10 uM by measuring inhibition of stimulation index incubated for 72 hrs in presence of mitogenic stimulus phytohaemagglutinin by MTT assay relative to indomethacin; assay type: functional; details: read-out: Activity
Rattus norvegicus [20] = assay: Anti-inflammatory activity in Wistar rat assessed as inhibition of carrageenan-induced paw edema at 10 mg/kg, ip pretreated for 1 hr followed by carrageenan challenge and measured after 3 hr relative to control (reference value: 0.00 +/-0.1 %); assay type: functional; details: time 4 hrs
Mus musculus [21] = assay: Analgesic activity in albino mouse assessed as forepaw licking/jumping latency time at 10 mg/kg, ip measured after 30 mins by hot plate test (reference value: 5.02 +/- 0.09 sec); assay type: functional; details: 0.5 h
Rattus norvegicus [22] = assay: Anti-inflammatory activity in Wistar rat assessed as inhibition of carrageenan-induced paw edema at 10 mg/kg, ip pretreated for 1 hr followed by carrageenan challenge and measured after 2 hr relative to control (reference value: 0.00 +/-0.03 %); assay type: functional; details: time 3 hrs
[23] = Ulcerogenic activity in fasted albino mouse assessed as average severity of ulcers in gastric mucosa at 10 mg/kg, po for 3 days (reference value: 0); assay type: toxicity, organism-based; details: in vivo, 72 h, time 3 day
[24] = Toxicity in albino mouse assessed as induction of toxic symptoms at 50 to 100 mg/kg, ip measured after 24 hrs; assay type: organism-based; details: in vivo, dose 50-100 mg/kg
Mus musculus [25] = assay: Analgesic activity in albino mouse assessed as protection at 10 mg/kg, ip measured after 90 mins by hot plate test (reference value: 0 %); assay type: functional; details: 1.5 h
Rattus norvegicus [26] = assay: Antiinflammatory activity in Wistar rat model of carrageenan-induced paw edema assessed as reduction in thickness of paw edema at 10 mg/kg, ip pretreated for 1 hr followed by carrageenan challenge and measured after 24 hrs (reference value: 0.83 +/-0.08 mm); assay type: functional; details: time 25 hrs
Mus musculus [27] = assay: Analgesic activity in albino mouse assessed reduction in acetic acid-induced abdominal writhing by measuring writing reflex at 10 mg/kg, ip pretreated for 1 hr followed by acetic acid challenge and measured starting 5 mins post acetic acid challenge for 10 mins (reference value: 42.4 +/- 1.02); assay type: functional; details: time 75 min, 1.25 h
Mus musculus [28] = assay: Analgesic activity in albino mouse assessed as forepaw licking/jumping latency time at 10 mg/kg, ip measured after 60 mins by hot plate test (reference value: 3.42 +/- 0.03 sec); assay type: functional; details: 1 h
Rattus norvegicus [29] = assay: Anti-inflammatory activity in Wistar rat assessed as inhibition of carrageenan-induced paw edema at 10 mg/kg, ip pretreated for 1 hr followed by carrageenan challenge and measured after 24 hr relative to control (reference value: 0.00 +/-0.3 %); assay type: functional; details: time 25 hrs
Mus musculus [30] = assay: Analgesic activity in albino mouse assessed as protection at 10 mg/kg, ip measured after 30 mins by hot plate test (reference value: 0 %); assay type: functional; details: 0.5 h
Mus musculus [31] = assay: Analgesic activity in albino mouse assessed as protection at 10 mg/kg, ip measured after 120 mins by hot plate test relative to indomethacin; assay type: functional; details: 2 h
Staphylococcus aureus = assay: Antibacterial activity against Staphylococcus aureus ATCC 25923 incubated for 18 hrs by agar dilution method; assay type: functional
Mus musculus [32] = assay: Analgesic activity in albino mouse assessed as forepaw licking/jumping latency time at 10 mg/kg, ip measured after 90 mins by hot plate test (reference value: 2.72 +/- 0.01 sec); assay type: functional; details: 1.5 h

In the case of COc1cc(/C=C/C(=O)/C=C(O)/C=C/c2ccc(OC(=O)[C@H](CCSC)NC(=O)OCC3c4ccccc4-c4ccccc43)c(OC)c2)ccc1OC(=O)[C@H](CCSC)NC(=O)OCC1c2ccccc2-c2ccccc21, the MIC (Salmonella typhimurium) is reported as 2 µg/mL and 1.86 µM, the Activity (Rattus norvegicus [1]) is reported as 0.56 mm and the Activity (Rattus norvegicus [2]) is reported as 1.3 mm. The MIC (Pseudomonas aeruginosa) was 2 µg/mL and 1.86 µM, the Activity (Peritoneal macrophage [3]) was 47.91% and the Activity (Mus musculus [4]) was 46.8%. The Activity (Mus musculus [5]) was 61.8%, the Activity [6] was 0 and the Activity_index (Splenocyte [7]) was 1.07. The UI [8] was 0, the Activity (Rattus norvegicus [9]) was 0.45 mm and the Activity (Peritoneal macrophage [10]) was 14.23 µM. For the same compound, the Activity [11] was 0%, the Time (Mus musculus [12]) was 2.98 s and the Activity (Rattus norvegicus [13]) was 0.03 mm. It also gave an inhibition in vivo at 10 mg/kg (Rattus norvegicus [14]) of 46%, an Activity (Mus musculus [15]) of 100.3% and an inhibition in vivo at 10 mg/kg (Rattus norvegicus [16]) of 113%. For the same compound, the Activity (Mus musculus [17]) was 13.7%, the MIC (Candida albicans) was 0.5 µg/mL and 0.465 µM and the MIC (Streptococcus pyogenes) was 0.125 µg/mL and 0.116 µM. It also gave an inhibition in vivo at 10 mg/kg (Rattus norvegicus [18]) of 98%, a viability at 10 µM (Splenocyte [19]) of 113% and an inhibition in vivo at 10 mg/kg (Rattus norvegicus [20]) of 75%. The Time (Mus musculus [21]) was 6.82 s, the inhibition in vivo at 10 mg/kg (Rattus norvegicus [22]) was 73% and the Activity [23] was 0. For the same compound, the Activity [24] was “Non-Toxic”, the Activity (Mus musculus [25]) was 24.3% and the Activity (Rattus norvegicus [26]) was 0.64 mm. It also gave an Activity (Mus musculus [27]) of 16.2, a Time (Mus musculus [28]) of 5.02 s and an inhibition in vivo at 10 mg/kg (Rattus norvegicus [29]) of 23%. The Activity (Mus musculus [30]) was 35.9%, the Activity (Mus musculus [31]) was 32.6% and the MIC (Staphylococcus aureus) was 0.25 µg/mL and 0.233 µM. The Time (Mus musculus [32]) was 3.38 s.

In the case of COc1cc(/C=C/C(=O)/C=C(O)/C=C/c2ccc(OC(=O)[C@H](CCSC)NC(=O)OC(C)(C)C)c(OC)c2)ccc1OC(=O)[C@H](CCSC)NC(=O)OC(C)(C)C, the MIC (Salmonella typhimurium) is reported as 2 µg/mL and 2.41 µM, the Activity (Rattus norvegicus [1]) is reported as 1.31 mm and the Activity (Rattus norvegicus [2]) is reported as 1.59 mm. For the same compound, the MIC (Pseudomonas aeruginosa) was 1 µg/mL and 1.2 µM, the Activity (Peritoneal macrophage [3]) was 40.84% and the Activity (Mus musculus [4]) was 70.8%. It also gave an Activity (Mus musculus [5]) of 71%, an Activity [6] of 0 and an Activity_index (Splenocyte [7]) of 1.37. For the same compound, the UI [8] was 0, the Activity (Rattus norvegicus [9]) was 1.01 mm and the Activity (Peritoneal macrophage [10]) was 16.16 µM. It also gave an Activity [11] of 0%, a Time (Mus musculus [12]) of 3.86 s and an Activity (Rattus norvegicus [13]) of 0.17 mm. It also gave an inhibition in vivo at 10 mg/kg (Rattus norvegicus [14]) of 34%, an Activity (Mus musculus [15]) of 115.3% and an inhibition in vivo at 10 mg/kg (Rattus norvegicus [16]) of 101%. For the same compound, the Activity (Mus musculus [17]) was 47.3%, the MIC (Candida albicans) was 1 µg/mL and 1.2 µM and the MIC (Streptococcus pyogenes) was 2 µg/mL and 2.41 µM. It also gave an inhibition in vivo at 10 mg/kg (Rattus norvegicus [18]) of 88%, a viability at 10 µM (Splenocyte [19]) of 88.5% and an inhibition in vivo at 10 mg/kg (Rattus norvegicus [20]) of 44%. For the same compound, the Time (Mus musculus [21]) was 5.74 s, the inhibition in vivo at 10 mg/kg (Rattus norvegicus [22]) was 36% and the Activity [23] was 0. For the same compound, the Activity [24] was “Non-Toxic”, the Activity (Mus musculus [25]) was 56.6% and the Activity (Rattus norvegicus [26]) was 0.64 mm. It also gave an Activity (Mus musculus [27]) of 12.3, a Time (Mus musculus [28]) of 5.84 s and an inhibition in vivo at 10 mg/kg (Rattus norvegicus [29]) of 23%. The Activity (Mus musculus [30]) was 14.3%, the Activity (Mus musculus [31]) was 112.6% and the MIC (Staphylococcus aureus) was 2 µg/mL and 2.41 µM. For the same compound, the Time (Mus musculus [32]) was 4.26 s.

From ChEMBL document CHEMBL4765295, “Synthesis, pharmacological profile and 2D-QSAR studies of curcumin-amino acid conjugates as potential drug candidates” (Eur J Med Chem, 2020)
